Test results from patent US12600726B2, “Antagonists of the muscarinic acetylcholine receptor M4” (Vanderbilt University, priority 2017, dated 2026).

Columns and labels:
[1] = target: T1, Mouse M4 (Mus musculus, UniProt P32211); assay: mAChR M4 cell-based functional calcium flux assay (mouse M4/Gqi5/CHO cells); conditions: for Emin (mouse M4): % ACh maximum at 30 μM
T1 construct: expressed in transfected cells; host or cells: CHO-K1 (ATCC), stably expressing M4 and Gqi5
T1 sequence (P32211 1-479): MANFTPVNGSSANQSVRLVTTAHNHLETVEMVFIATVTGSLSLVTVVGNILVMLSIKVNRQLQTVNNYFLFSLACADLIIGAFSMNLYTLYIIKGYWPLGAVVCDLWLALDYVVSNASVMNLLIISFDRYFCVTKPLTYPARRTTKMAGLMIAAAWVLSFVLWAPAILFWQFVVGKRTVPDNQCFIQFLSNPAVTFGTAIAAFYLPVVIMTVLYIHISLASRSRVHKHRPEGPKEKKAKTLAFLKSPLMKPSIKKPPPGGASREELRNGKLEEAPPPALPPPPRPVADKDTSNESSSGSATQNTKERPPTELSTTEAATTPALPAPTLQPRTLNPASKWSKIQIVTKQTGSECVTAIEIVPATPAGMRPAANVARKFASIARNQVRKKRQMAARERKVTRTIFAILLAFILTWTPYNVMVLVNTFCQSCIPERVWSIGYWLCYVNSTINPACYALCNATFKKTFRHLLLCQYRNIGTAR
Method: Human, rat, or mouse M4. cDNA, along with the chimeric G protein Gqi5, were transfected into Chinese hamster ovary (CHO-K1) cells purchased from the American Type Culture Collection using Lipofectamine2000. M4/Gqi5/CHO cells were grown in Ham's F-12 medium containing 10% heat-inactivated fetal bovine serum (FBS), 20 mM HEPES, 500 μg/mL G418 sulfate, and 200 μg/mL Hygromycin B.
For high throughput measurement of agonist-evoked increases in intracellular calcium, CHO-K1 cells stably expressing muscarinic receptors were plated in growth medium lacking G418 and hygromycin at 15,000 cells/20 μL/well in Greiner 384-well black-walled, tissue culture (TC)-treated, clear-bottom plates (VWR). Cells were incubated overnight at 37° C. and 5% CO2. The next day, cells were washed using an ELX 405 (BioTek) with assay buffer; the final volume was then aspirated to 20 μL. Next, 20 μL of a 2.3 μM stock of Fluo-4/acetoxymethyl ester (Invitrogen, Carlsbad, CA), prepared as a 2.3 mM stock in DMSO and mixed in a 1:1 ratio with 10% (w/v) Pluronic F-127 and diluted in assay buffer, was added to the wells and the cell plates were incubated for 50 min at 37° C. and 5% CO2. Dye was removed by washing with the ELX 405 and the final volume was aspirated to 20 μL. Compound master plates were formatted in a 10 point concentration-response curve (CRC) format (1:3 dilutions) in 100% DMSO with a starting concentration of 10 or 1 mM using a BRAVO liquid handler (Agilent). Test compound CRCs were then transferred to daughter plates (240 nL) using the Echo acoustic plate reformatter (Labcyte, Sunnyvale, CA) and then diluted into assay buffer (40 μL) to a 2× stock using a Thermo Fisher Combi (Thermo Fisher Scientific, Waltham, MA).
Calcium flux was measured using the Functional Drug Screening System (FDSS) 6000 or 7000 (Hamamatsu Corporation, Tokyo, Japan) as an increase in the fluorescent static ratio. Compounds were applied to cells (20 μL, 2×) using the automated system of the FDSS at 2 seconds into the protocol and the data were collected at 1 Hz. At 143 s, 10 μL of an EC20 concentration of the muscarinic receptor agonist acetylcholine was added (5×), followed by the addition of 12 μL of an EC80 concentration of acetylcholine at the 268 s time point (5×). Agonist activity was analyzed as a concentration-dependent increase in calcium mobilization upon compound addition. Positive allosteric modulator activity was analyzed as a concentration-dependent increase in the EC20 acetylcholine response. Antagonist activity was analyzed as a concentration-dependent decrease in the EC80 acetylcholine response; for the purposes of the tables herein, an IC50 (inhibitory concentration 50) was calculated as a concentration-dependent decrease of the response elicited by an EC80 concentration of acetylcholine. Concentration-response curves were generated using a four-parameter logistical equation in XLFit curve fitting software (IDBS, Bridgewater, NJ) for Excel (Microsoft, Redmond, WA) or Prism (GraphPad Software, Inc., San Diego, CA) or the Dotmatics software platform (Dotmatics, Bishop's Stortford, UK).
Compounds were synthesized as described above. Activity (IC50 and Emin) was determined in the mAChR M4 cell-based functional assay as described above and the data are shown in Table 2 and Table 3. The compound number corresponds to the compound numbers used in the examples and Tables 1 and 1.1.

[2] = target: T2, Rat M4 (Rattus norvegicus, UniProt P08485); assay: mAChR M4 cell-based functional calcium flux assay (rat M4/Gqi5/CHO cells); conditions: for Emin (rat M4): % ACh maximum at 30 μM; for IC50: decrease of the response to an EC80 concentration of acetylcholine
T2 construct: expressed in transfected cells; host or cells: CHO-K1 (ATCC), stably expressing M4 and Gqi5
T2 sequence (P08485 1-478): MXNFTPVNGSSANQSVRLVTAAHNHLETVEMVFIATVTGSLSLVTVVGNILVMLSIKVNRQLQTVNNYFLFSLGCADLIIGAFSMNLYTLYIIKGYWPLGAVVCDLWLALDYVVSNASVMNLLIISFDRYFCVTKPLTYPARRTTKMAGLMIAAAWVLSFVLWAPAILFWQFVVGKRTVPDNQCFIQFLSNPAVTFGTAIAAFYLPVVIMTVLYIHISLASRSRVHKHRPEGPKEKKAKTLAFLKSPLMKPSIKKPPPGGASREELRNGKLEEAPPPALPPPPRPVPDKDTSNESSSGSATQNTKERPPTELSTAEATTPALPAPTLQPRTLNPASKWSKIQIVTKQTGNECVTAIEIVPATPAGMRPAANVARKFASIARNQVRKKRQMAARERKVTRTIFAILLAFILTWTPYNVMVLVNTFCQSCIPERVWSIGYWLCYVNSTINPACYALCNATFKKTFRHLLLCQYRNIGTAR
Summary of the method: (§1)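 CHO-K1 cells stably co-expressing M4 of the given species with chimeric Gqi5 were loaded with Fluo-4 AM and read for calcium flux. Compounds (10-point, 1:3 dilutions) were added first, followed by an acetylcholine EC20 at 143 s and an EC80 at 268 s. IC50 reflects the concentration-dependent fall in the EC80 response, fitted with a four-parameter logistic.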

[3] = target: T3, Human M4 (Homo sapiens, UniProt P08173); assay: mAChR M4 cell-based functional calcium flux assay (human M4/Gqi5/CHO cells); conditions: for Emin (human M4): % ACh maximum at 30 μM; for IC50: decrease of the response to an EC80 concentration of acetylcholine
T3 construct: expressed in transfected cells; host or cells: CHO-K1 (ATCC), stably expressing M4 and Gqi5
T3 sequence (P08173 1-479): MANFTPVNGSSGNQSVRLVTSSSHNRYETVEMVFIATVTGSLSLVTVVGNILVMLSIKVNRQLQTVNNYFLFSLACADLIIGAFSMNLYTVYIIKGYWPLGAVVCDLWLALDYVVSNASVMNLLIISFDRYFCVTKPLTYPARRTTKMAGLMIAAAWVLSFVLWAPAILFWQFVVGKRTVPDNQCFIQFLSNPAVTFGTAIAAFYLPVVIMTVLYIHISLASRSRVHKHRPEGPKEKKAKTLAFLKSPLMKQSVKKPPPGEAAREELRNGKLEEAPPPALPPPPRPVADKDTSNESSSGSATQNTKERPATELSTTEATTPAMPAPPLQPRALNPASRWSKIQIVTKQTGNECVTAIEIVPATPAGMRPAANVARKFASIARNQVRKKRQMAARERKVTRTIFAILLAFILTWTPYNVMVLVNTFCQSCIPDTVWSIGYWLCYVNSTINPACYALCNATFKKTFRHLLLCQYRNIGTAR
Summary of the method: as §1

[4] = decrease of the response to an EC80 concentration of acetylcholine

Compound	Emin (mouse M4) [1] [%]	IC50 [1, 4] [µM]	IC50 ([1]; in μM, decrease of the EC80 acetylcholine response) [µM]	Emin (rat M4) [2] [%]	IC50 [2] [nM]	Emin (human M4) [3] [%]	IC50 [3] [nM]
Fc1ccc(Cl)c(-c2ccc(OCC3CC34CCN(CC3CC5C=CC3C5)CC4)nn2)c1 (centres unmarked) [Compound 86, 6-(5-bicyclo[2.2.1]hept-2-enylmethyl)-2-[[6-(2-chloro-5-fluoro-phenyl)pyridazin-3-yl]oxymethyl]-6-azaspiro[2.5]octane]	3	2.81					
CC(C)(C)CCN1CCC2(CC1)CC2CNc1ccc2nccn2n1 (centres unmarked) [Compound 102, N-[[6-(3,3-dimethylbutyl)-6-azaspiro[2.5]octan-2-yl]methyl]imidazo[1,2-b]pyridazin-6-amine]	8	1.29					
CC(C)(C)CCN1CCC2(CC1)CC2CNc1ccc(N2CCCCC2)nn1 (centres unmarked) [Compound 78, N-[[6-(3,3-dimethylbutyl)-6-azaspiro[2.5]octan-2-yl]methyl]-6-(1-piperidyl)pyridazin-3-amine]	8	1.24					
c1cc2nncn2nc1NCC1CC12CCN(CC1CCCCC1)CC2 (centres unmarked) [Compound 105, N-[[6-(cyclohexylmethyl)-6-azaspiro[2.5]octan-2-yl]methyl]-[1,2,4]triazolo[4,3-b]pyridazin-6-amine]	37		> 10				
C1=CC2CC1CC2CN1CCC2(CC1)CC2CNc1ccc2nncn2n1 (centres unmarked) [Compound 103, N-[[6-(5-bicyclo[2.2.1]hept-2-enylmethyl)-6-azaspiro[2.5]octan-2-yl]methyl]-[1,2,4]triazolo[4,3-b]pyridazin-6-amine]	13	1.5					
CC(C)(C)CCN1CCC2(CC1)CC2CNc1ccc(-c2cc(F)ccc2Cl)cn1 (centres unmarked) [Compound 69, 5-(2-chloro-5-fluoro-phenyl)-N-[[6-(3,3-dimethylbutyl)-6-azaspiro[2.5]octan-2-yl]methyl]pyridin-2-amine]				4.18	1800	4.09	749
Cc1ccncc1-c1ccc(NCC2CC23CCN(CCC(C)(C)C)CC3)nn1 (centres unmarked) [Compound 25, N-[[6-(3,3-dimethylbutyl)-6-azaspiro[2.5]octan-2-yl]methyl]-6-(4-methyl-3-pyridyl)pyridazin-3-amine]				3.75	77.8	2.93	4.35
CC(=O)Nc1ccc(-c2ccc(NC[C@@H]3CC34CCN(CCC(C)(C)C)CC4)nn2)cc1 [Compound 111, N-[4-[6-[[(2R)-6-(3,3-dimethylbutyl)-6-azaspiro[2.5]octan-2-yl]methylamino]pyridazin-3-yl]phenyl]acetamide]				4	7.53	6	2.04
CC(C)(C)CCN1CCC2(CC1)CC2CNc1ccc(-c2cc(F)ccc2F)nn1 (centres unmarked) [Compound 30, 6-(2,5-difluorophenyl)-N-[[6-(3,3-dimethylbutyl)-6-azaspiro[2.5]octan-2-yl]methyl]pyridazin-3-amine]				3.26	107	2.43	31.2
Cc1nn(C)cc1-c1ccc(NCC2CC23CCN(Cc2ccccc2)CC3)nn1 (centres unmarked) [Compound 58, N-[(6-benzyl-6-azaspiro[2.5]octan-2-yl)methyl]-6-(1,3-dimethylpyrazol-4-yl)pyridazin-3-amine]				11.8	3600	4.18	384
Fc1ccc(Cl)c(-c2ccc(NC[C@H]3CC34CCN(CC3CCCCC3)CC4)nn2)c1 [Compound 67, (S)-6-(2-chloro-5-fluoro-phenyl)-N-[[6-(cyclohexylmethyl)-6-azaspiro[2.5]octan-2-yl]methyl]pyridazin-3-amine]				4.36	527	3.66	27.8
CC(C)(C)CCN1CCC2(CC1)CC2CNc1ccc(-c2ccccc2F)nn1 (centres unmarked) [Compound 26, N-[[6-(3,3-dimethylbutyl)-6-azaspiro[2.5]octan-2-yl]methyl]-6-(2-fluorophenyl)pyridazin-3-amine]				3.40	192	2.98	13.3
Fc1ccc(Cl)c(-c2ccc(NCC3CC34CCN(CC3CC5C=CC3C5)CC4)nc2)c1 (centres unmarked) [Compound 68, N-[[6-(5-bicyclo[2.2.1]hept-2-enylmethyl)-6-azaspiro[2.5]octan-2-yl]methyl]-5-(2-chloro-5-fluoro-phenyl)pyridin-2-amine]				4.48	1500	4.04	495
Fc1ccc(Cl)c(-c2ccc(NC[C@@H]3CC34CCN(CC3CC5C=CC3C5)CC4)nn2)c1 (stereo partly drawn) [Compound 108, N-(((1R)-6-(bicyclo[2.2.1]hept-5-en-2-ylmethyl)-6-azaspiro[2.5]octan-1-yl)methyl)-6-(2-chloro-5-fluorophenyl)pyridazin-3-amine]				3	48.1	2	9.89
Fc1ccc(Cl)c(-c2ccc(NCC3CC34CCN(CC(c3ccccc3)c3ccccc3)CC4)nn2)c1 (centres unmarked) [Compound 17, 6-(2-chloro-5-fluoro-phenyl)-N-[[6-(2,2-diphenylethyl)-6-azaspiro[2.5]octan-2-yl]methyl]pyridazin-3-amine]				12.1	2980	3.82	987
